Reference: ChEMBL document CHEMBL5042486, “Discovery and Preclinical Characterization of BIIB091, a Reversible, Selective BTK Inhibitor for the Treatment of Multiple Sclerosis” (J Med Chem, 2022)
Converted amounts (≈) assume the structure as drawn. One block for each compound: values may come before it.

Experiments:
[1] = Kinetic aqueous solubility of the compound in pH 6.8; format: physicochemical; settings: read-out: Kinetic_solubility
[2] = Kinetic aqueous solubility of the compound in pH 3; format: physicochemical; settings: read-out: Kinetic_solubility
[3] = Protein binding in human plasma assessed as unbound fraction at 2 uM by rapid equilibrium dialysis method; format: ADME, cell-free
[4] = Protein binding in rat plasma assessed as unbound fraction at 2 uM by rapid equilibrium dialysis method; format: ADME, cell-free
[5] = Kinetic solubility of the compound at pH 1.5 by shake flask method; format: physicochemical; settings: buffer, read-out: Kinetic_solubility
Cytochrome P450 2C9 = Cytochrome P450 2C9 (Homo sapiens, UniProt P11712); assay: Inhibition of CYP2C9 (unknown origin); format: ADME
Cytochrome P450 2C9, sequence (P11712 whole entry): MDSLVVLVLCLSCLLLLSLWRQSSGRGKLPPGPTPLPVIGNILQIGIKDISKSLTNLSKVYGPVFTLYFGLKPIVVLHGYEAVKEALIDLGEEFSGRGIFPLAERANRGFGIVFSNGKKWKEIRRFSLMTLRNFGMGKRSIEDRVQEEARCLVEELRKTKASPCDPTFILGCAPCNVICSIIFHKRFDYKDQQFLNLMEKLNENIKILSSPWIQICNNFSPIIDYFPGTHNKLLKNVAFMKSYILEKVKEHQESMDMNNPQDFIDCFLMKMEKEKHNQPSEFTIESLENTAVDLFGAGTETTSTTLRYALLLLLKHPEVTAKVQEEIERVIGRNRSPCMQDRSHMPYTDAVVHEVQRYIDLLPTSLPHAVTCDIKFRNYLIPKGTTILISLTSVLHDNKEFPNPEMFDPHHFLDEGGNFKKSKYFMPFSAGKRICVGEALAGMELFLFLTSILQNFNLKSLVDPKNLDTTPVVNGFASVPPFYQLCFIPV

[6] = Lipophilicity, logD of the compound at pH 7.6 by shake flask assay; format: physicochemical; settings: buffer
Cytochrome P450 3A4 = Cytochrome P450 3A4 (Homo sapiens, UniProt P08684); assay: Inhibition of CYP3A4 (unknown origin); format: ADME
Cytochrome P450 3A4, sequence (P08684 whole entry): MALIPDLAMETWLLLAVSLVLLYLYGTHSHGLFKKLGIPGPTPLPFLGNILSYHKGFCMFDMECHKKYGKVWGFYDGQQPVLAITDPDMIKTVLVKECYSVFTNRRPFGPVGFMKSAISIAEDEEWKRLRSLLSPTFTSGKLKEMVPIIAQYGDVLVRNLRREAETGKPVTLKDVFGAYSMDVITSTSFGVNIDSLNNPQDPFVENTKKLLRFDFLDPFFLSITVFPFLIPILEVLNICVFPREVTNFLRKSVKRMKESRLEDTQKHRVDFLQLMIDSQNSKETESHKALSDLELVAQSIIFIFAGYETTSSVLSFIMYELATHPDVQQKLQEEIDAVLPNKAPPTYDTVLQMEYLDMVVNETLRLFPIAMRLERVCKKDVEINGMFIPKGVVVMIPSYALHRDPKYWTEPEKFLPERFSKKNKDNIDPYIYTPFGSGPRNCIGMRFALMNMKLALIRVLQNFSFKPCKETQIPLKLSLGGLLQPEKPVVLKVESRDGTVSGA

[7] = molecular target: T1, Tyrosine-protein kinase BTK (Homo sapiens, UniProt Q06187); assay: Inhibition of human BTK using fluorescein-labeled polyGAT peptide as substrate incubated for 30 mins by FRET assay
T1 sequence (Q06187 whole entry): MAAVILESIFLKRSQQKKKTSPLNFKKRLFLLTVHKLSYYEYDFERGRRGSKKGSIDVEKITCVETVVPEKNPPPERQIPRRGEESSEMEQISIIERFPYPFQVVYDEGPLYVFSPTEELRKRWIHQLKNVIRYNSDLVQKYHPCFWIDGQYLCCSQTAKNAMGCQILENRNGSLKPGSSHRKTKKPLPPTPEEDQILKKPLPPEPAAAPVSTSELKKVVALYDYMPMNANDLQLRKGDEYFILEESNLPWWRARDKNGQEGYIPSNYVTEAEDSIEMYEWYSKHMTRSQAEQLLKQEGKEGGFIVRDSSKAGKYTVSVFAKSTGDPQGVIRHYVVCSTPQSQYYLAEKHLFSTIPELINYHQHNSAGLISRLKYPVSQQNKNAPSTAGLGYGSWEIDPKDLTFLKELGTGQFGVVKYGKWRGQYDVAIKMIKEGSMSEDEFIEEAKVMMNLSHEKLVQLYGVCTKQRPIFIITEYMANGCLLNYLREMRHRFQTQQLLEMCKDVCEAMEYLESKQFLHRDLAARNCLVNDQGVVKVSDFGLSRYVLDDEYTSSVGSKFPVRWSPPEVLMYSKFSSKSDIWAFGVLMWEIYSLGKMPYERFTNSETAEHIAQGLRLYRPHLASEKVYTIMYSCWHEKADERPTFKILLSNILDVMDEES

[8] = molecular target: T1, Tyrosine-protein kinase BTK; assay: Inhibition of BTK phosphorylation in human whole blood assessed as reduction in BTK phosphorylation incubated for 30 mins; format: tissue-based
[9] = Dissociation constant, pKa of the compound; format: physicochemical
[10] = AUC in Sprague-Dawley rat at 5 mg/kg, po; format: ADME, organism-based; design: dose 5 mg/kg; settings: in vivo
[11] = AUC in Beagle dog at 5 mg/kg, po; format: ADME, organism-based, Canis lupus familiaris; design: dose 5 mg/kg; settings: in vivo
[12] = Clearance in Beagle dog assessed as hepatic blood flow at 1 mg/kg, iv; format: ADME, organism-based, Canis lupus familiaris, Liver; settings: in vivo
[13] = Cmax in Beagle dog at 5 mg/kg, po; format: ADME, organism-based, Canis lupus familiaris; design: route oral, dose 5 mg/kg; settings: in vivo
[14] = Solubility of the compound in FeSIF at pH 5.9; format: physicochemical
[15] = Solubility of the compound in simulated gastric fluid at pH 1.6; format: physicochemical
[16] = Half life in Sprague-Dawley rat at 5 mg/kg, po; format: ADME, organism-based; settings: in vivo
[17] = Oral bioavailability in Beagle dog at 5 mg/kg; format: ADME, organism-based, Canis lupus familiaris; settings: in vivo
[18] = Half life in Beagle dog at 5 mg/kg, po; format: ADME, organism-based, Canis lupus familiaris; settings: in vivo
[19] = Kinetic solubility of the compound at pH 7.5 by shake flask method; format: physicochemical; settings: buffer, read-out: Kinetic_solubility
[20] = Volume of distribution at steady state in Sprague-Dawley rat at 1 mg/kg, iv; format: ADME, organism-based; settings: in vivo, read-out: Vdss
[21] = Clearance in Sprague-Dawley rat at 1 mg/kg, iv; format: ADME, organism-based; settings: in vivo
[22] = Solubility of the compound in FaSIF at pH 6.5; format: physicochemical
[23] = Clearance in Beagle dog at 1 mg/kg, iv; format: ADME, organism-based, Canis lupus familiaris; settings: in vivo
[24] = Clearance in Sprague-Dawley rat assessed as hepatic blood flow at 1 mg/kg, iv; format: ADME, organism-based, Liver; settings: in vivo
[25] = Oral bioavailability in Sprague-Dawley rat at 5 mg/kg; format: ADME, organism-based; settings: in vivo
[26] = Cmax in Sprague-Dawley rat at 5 mg/kg, po; format: ADME, organism-based; design: route oral, dose 5 mg/kg; settings: in vivo
[27] = Volume of distribution at steady state in Beagle dog at 1 mg/kg, iv; format: ADME, organism-based, Canis lupus familiaris; settings: in vivo, read-out: Vdss

SMILES: CC(C)OC1CN(C(=O)NCc2ccc(-c3ccnc(Nc4cnn(C)c4)n3)cc2C(F)(F)F)C1
solubility kinetic [1]: < 10 µg/mL
solubility kinetic [2]: < 10 µg/mL

SMILES: Cn1cc(Nc2nccc(-c3ccc4c(c3)CCCC[C@H]4NC(=O)c3nnc(C(C)(C)C)o3)n2)cn1
fraction unbound at 2 µM [3]: 0.041
fraction unbound at 2 µM [4]: 0.008
solubility kinetic [5]: > 50 µg/mL
solubility kinetic [1]: < 20 µg/mL
IC50 (Cytochrome P450 2C9): 4000 nM
logD [6]: 2.3
IC50 (Cytochrome P450 3A4): > 10000 nM

SMILES: Cn1cc(Nc2nccc(-c3ccc4c(c3)CNCC[C@H]4NC(=O)c3cn(C(C)(C)C)nn3)n2)cn1
fraction unbound at 2 µM [3]: 0.18
solubility kinetic [5]: > 50 µg/mL
solubility kinetic [1]: > 50 µg/mL
logD [6]: 2.9

SMILES: CC(C)OC1CN(C(=O)NC2CCCc3cc(-c4ccnc(Nc5cnn(C)c5)n4)ccc32)C1 (stereo unspecified)
solubility kinetic [1]: > 30 µg/mL
solubility kinetic [2]: > 30 µg/mL

SMILES: Cc1c(-c2c(F)cc(C(N)=O)c3[nH]c4c(c23)CC[C@H](C(C)(C)O)C4)cccc1-n1c(=O)c2cccc(F)c2n(C)c1=O [BMS-986142]
IC50 [7]: 1 nM
IC50 [8]: 110 nM

SMILES: C=CC(=O)Nc1cccc(Oc2nc(Nc3ccc(N4CCN(C)CC4)cc3)nc3ccoc23)c1 [POSELTINIB]
IC50 [7]: 1 nM

SMILES: Cc1c(NC(=O)c2cc3c(s2)CCCC3)cccc1-c1cn(C)c(=O)c(Nc2ccc(C3CN(C)CC(=O)N3C)cc2)n1 (stereo unspecified)
IC50 [7]: 1 nM
IC50 [8]: 150 nM

SMILES: Cc1c(CNC(=O)N2CC(OC(C)C)C2)ccc(-c2ccnc(Nc3cnn(C)c3)n2)c1F
solubility kinetic [1]: > 10 µg/mL
solubility kinetic [2]: > 10 µg/mL

SMILES: Cc1cc(-c2ccnc(Nc3cnn(C)c3)n2)ccc1CNC(=O)N1CC(OC(C)C)C1
fraction unbound at 2 µM [3]: 0.06
half-life [16]: 1.2 h
half-life [18]: 2.1 h
solubility kinetic [5]: < 30 µg/mL
solubility kinetic [1]: < 30 µg/mL
solubility kinetic [19]: > 30 µg/mL
solubility kinetic [2]: > 30 µg/mL
logD [6]: 2.7

SMILES: Cn1cc(Nc2nccc(-c3ccc4c(c3)CCCC[C@H]4NC(=O)c3nc(C(C)(C)C)no3)n2)cn1
fraction unbound at 2 µM [3]: 0.008
fraction unbound at 2 µM [4]: 0.009
solubility kinetic [5]: > 50 µg/mL
solubility kinetic [1]: < 20 µg/mL
IC50 (Cytochrome P450 2C9): 400 nM
logD [6]: 2.8
IC50 (Cytochrome P450 3A4): 2600 nM

Continued, values first:

fraction unbound at 2 µM [3]: 0.12
solubility kinetic [5]: > 50 µg/mL
solubility kinetic [1]: > 50 µg/mL
logD [6]: 2.3
SMILES: Cn1cc(Nc2nccc(-c3ccc4c(c3)CCNC[C@H]4NC(=O)c3cn(C(C)(C)C)nn3)n2)cn1

fraction unbound at 2 µM [3]: 0.07
solubility kinetic [5]: > 50 µg/mL
logD [6]: 2.9
SMILES: CN1CCc2cc(-c3ccnc(Nc4cnn(C)c4)n3)ccc2[C@H](NC(=O)c2cn(C(C)(C)C)nn2)C1

IC50 [7]: > 10000 nM
SMILES: Cc1cc(-c2ccnc(Nc3cnn(C)c3)n2)c(F)cc1CNC(=O)N1CC(OC(C)C)C1

fraction unbound at 2 µM [3]: 0.011
fraction unbound at 2 µM [4]: 0.002
solubility kinetic [5]: > 50 µg/mL
solubility kinetic [1]: < 20 µg/mL
IC50 (Cytochrome P450 2C9): 2000 nM
logD [6]: 3.5
IC50 (Cytochrome P450 3A4): 6400 nM
SMILES: Cn1cc(Nc2nccc(-c3ccc4c(c3)CCCC[C@H]4NC(=O)c3cn(C(C)(C)C)nn3)n2)cn1

IC50 [7]: 0.8 nM
fraction unbound at 2 µM [3]: 0.19
solubility kinetic [5]: > 50 µg/mL
solubility kinetic [1]: > 50 µg/mL
pKa [9]: 4
logD [6]: 1
SMILES: CN1CC[C@@H](NC(=O)c2cn(C(C)(C)C)nn2)c2ccc(-c3ccnc(Nc4cnn(C)c4)n3)cc2C1

AUC [10]: 6940 ng·h/mL
AUC [11]: 14200 ng·h/mL
QH [12]: 31%
Cmax [13]: 3710 ng/mL
solubility [14]: 170 µg/mL (≈ 357 µM)
fraction unbound at 2 µM [3]: 0.07
solubility [15]: > 15000 µg/mL
half-life [16]: 1.3 h
bioavailability [17]: 92%
half-life [18]: 2.4 h
solubility kinetic [5]: > 30 µg/mL
solubility kinetic [19]: > 30 µg/mL
Vd [20]: 0.6 L/kg
clearance [21]: 6 mL/min/kg
solubility [22]: 80 µg/mL (≈ 168 µM)
clearance [23]: 4 mL/min/kg
QH [24]: 11%
bioavailability [25]: 69%
Cmax [26]: 2460 ng/mL
logD [6]: 3.6
Vd [27]: 1.6 L/kg
SMILES: CC(C)OC1CN(C(=O)N[C@@H]2CCCCc3cc(-c4ccnc(Nc5cnn(C)c5)n4)ccc32)C1

fraction unbound at 2 µM [3]: 0.1
solubility kinetic [5]: > 50 µg/mL
solubility kinetic [1]: > 50 µg/mL
pKa [9]: 3.1
logD [6]: 2.9
SMILES: COCCN1CC[C@@H](NC(=O)c2cn(C(C)(C)C)nn2)c2ccc(-c3ccnc(Nc4cnn(C)c4)n3)cc2C1

solubility kinetic [1]: < 30 µg/mL
solubility kinetic [2]: < 30 µg/mL
SMILES: CC(C)OC1CN(C(=O)NCc2ccc(-c3ccnc(Nc4cnn(C)c4)n3)cc2Cl)C1
